Measured values published in US5723609A, “Bis (hydroxymethyl) cyclobutyl purines” (E. R. Squibb & Sons, Inc., priority 1989, dated 1998).
Like-named read-outs stand apart in the source and are kept apart here.

What was measured:
HCMV = HCMV plaque reduction antiviral assay in WI-38 cell monolayers; type: cell-based, human cytomegalovirus; details: Human betaherpesvirus 5; HCMV strain AD 169; WI-38 cells; 6-7 days at 37° C.; at least 50% plaque reduction; read-out: ID50 (the source's name)
Procedure: (§1) Assays were performed in cell culture systems to determine the concentrations of compounds that are effective in preventing several kinds of viral infections.
(§2) HSV-1 (herpes simplex virus type 1, strain Schooler), HSV-2 (herpes simplex virus type 2, strain 186), VZV (varicella zoster virus, strain ELLEN), HCMV (human cytomegalovirus, strain AD 169), MuLV (murine leukemia virus, strain CAS), HIV (human immunodeficiency virus, strain HTLV-IIIB).
(§3) HSV-1, HSV-2, HCMV, and VZV antiviral assays:
(§4) Virus was adsorbed to WI-38 cell culture monolayers in 6 well culture plates (Costar, Cambridge, Mass.) for 1 hour prior to addition of maintenance medium containing duplicate dilutions of the test compound. Inhibition of plaque development was evaluated on fixed and stained monolayers after 4 days incubation at 37° C. for HSV-1 and HSV-2 and after 6-7 days incubation at 37° C. for HCMV and VZV. ID50 values were determined from the drug concentration which conferred at least a 50% plaque reduction compared to virus controls.

VZV = VZV plaque reduction antiviral assay in WI-38 cell monolayers; type: cell-based, varicella zoster virus; details: Human alphaherpesvirus 3; VZV strain ELLEN; WI-38 cells; 6-7 days at 37° C.; at least 50% plaque reduction; read-out: ID50 (the source's name)
Procedure: as §1, §2, §3, §4

HSV-1 = HSV-1 plaque reduction antiviral assay in WI-38 cell monolayers; type: cell-based, herpes simplex virus type 1; details: Human alphaherpesvirus 1, 96 h; HSV-1 strain Schooler; WI-38 cells; 4 days at 37° C.; at least 50% plaque reduction; read-out: ID50 (the source's name)
Procedure: as §1, §2, §3, §4

HSV-2 = HSV-2 plaque reduction antiviral assay in WI-38 cell monolayers; type: cell-based, herpes simplex virus type 2, strain 186
Procedure: as §1, §2, §3, §4

HIV = HIV antiviral assay, cytopathic effect in CEM cells (XTT-PMS); type: cell-based; details: Human immunodeficiency virus 1, CCRF-CEM, 168 h, HIV strain HTLV-IIIB, 7 days at 37° C., inhibits CPE by 50%, read-out: ID50 (the source's name)
Procedure: as §1, §2
HIV antiviral assay: Suspensions of CEM(Nara and Fischinger, Nature, 332:469, 1988) cells were infected at a multiplicity of infection (e.g. virus/cell) of 0.12 with HIV (strain HTLV-III B). […] Following incubation, viable cell numbers were counted in each well using a colorimetric assay following incubation of cells with XTT-PMS solution (XTT tetrazolium reagent plus phenazine methosulfate PMS).
Percent reduction of vital cytopathic effect (CPE) in drug treated compared to untreated virus infected cells, and percent reduction of cell viability in drug treated uninfected cells compared to untreated controls were calculated and plotted versus the drug concentrations tested. […]

MuLV = MuLV antiviral assay, syncytial plaques (SC-1 cells, XC cell overlay); type: cell-based; details: Murine leukemia virus, SC1, MuLV strain CAS, read-out: ID50 (the source's name)
Procedure: as §1, §2
Antiviral assays using MuLV were performed with some modification, as described by Rowe et al. and Shannon et al., SC-1 cells were planted at approximately 2×10^5 cell per well in 6 well plates. After overnight incubation at 37° C., the cell cultures were sensitized with DEAE-Dextran for one hour at 37° C., rinsed and inoculated with MuLV. Cultures were re-fed with growth medium containing different concentrations of the test compound. After three more days at 37° C., cultures were re-fed with fresh medium plus test compounds and incubated at 37° C. for an additional 3 days. Cultures were then washed to remove medium, ultraviolet light irradiated, and planted with approximately 5×10^5 XC cells per well in cell growth medium containing the appropriate concentration of the test compound. […] Finally the cultures were rinsed, stained and syncytial plaques were counted.

[1] = Human alphaherpesvirus 2, 96 h, HSV-2 strain 186, WI-38 cells, 4 days at 37° C., at least 50% plaque reduction, read-out: ID50 (the source's name)
[2] = Human alphaherpesvirus 2, WI-38, 96 h, read-out: ID50

Row | SMILES | IC50 (HCMV) [µM] | IC50 (VZV) [µM] | IC50 (HSV-1) [µM] | IC50 (HSV-2; [1]) [µM] | IC50 (HIV) [µM] | IC50 (MuLV) [µM] | IC50 (HSV-2; [2]) [µM]
1 | Nc1ccn([C@@H]2C[C@H](CO)[C@H]2CO)c(=O)n1 (relative stereo) [(1α,2β,3α)-4-Amino-1-[2,3-bis(hydroxymethyl)cyclobutyl]-2(1H)-pyrimidinone] | 22 to 44 | 22 | 444 | 444 | – | – | –
2 | Nc1ncnc2c1ncn2[C@@H]1C[C@H](CO)[C@H]1CO (relative stereo) [(1α,2β,3α)-3-(6-Amino-9H-purin-9-yl)-1,2-cyclobutanedimethanol] | 0.8 | 0.8 to 2 | 8 | 4 to 8 | 6.8 | – | –
3 | Nc1nc2c(ncn2[C@@H]2C[C@H](CO)[C@H]2CO)c(=O)[nH]1 (relative stereo) [(1α,2β,3α)-9-[2,3-Bis(hydroxymethyl)cyclobutyl]guanine] | 3.8 | 0.2 | 0.08 to 0.2 | 0.04 to 0.08 | 30 | 3.8 | –
4 | Nc1nc2c(nnn2[C@@H]2C[C@H](CO)[C@H]2CO)c(=O)[nH]1 (relative stereo) [(1α,2β,3α)-5-Amino-3-[2,3-bis(hydroxymethyl)cyclobutyl]-3,6-dihydro-7H-1,2,3-triazolo[4,5-d]pyrimidin-7-one] | 376 | 3.8 to 38 | 7.5 | 7.5 | – | – | –
5 | O=c1[nH]c(=O)n([C@@H]2C[C@H](CO)[C@H]2CO)cc1/C=C/Br (relative stereo) [[1α(E),2β,3α]-1-[2,3-Bis(hydroxymethyl)cyclobutyl]-5-(2-bromoethenyl)-2,4(1H,3H)pyrimidinedione] | > 302 | 0.03 to 0.06 | 10 to 30 | – | – | – | > 302
6 | O=c1[nH]c(=O)n([C@@H]2C[C@H](CO)[C@H]2CO)cc1I (relative stereo) [(1α,2β,3α)-1-[2,3-Bis(hydroxymethyl)cyclobutyl]-5-iodo-2,4(1H,3H)-pyrimidinedione] | > 284 | 14 to 28 | 6 to 14 | – | – | – | > 284
